# Measured values: patent US10286022B2, “Medicinal composition of extract of seed of emblica officinalis and method of preparing the same” (priority 2013, dated 2019)
# Tested on: Triton WR 1339 induced dyslipidemia in Albino rats (Sprague Dawley strain)
# Assay: Hypolipidemic activity of product 3 compared with amla seed powder, Triton WR 1339 model (Example 26)
# Type: in vivo, rat
# Method: Twenty eight male Albino rats (Sprague Dawley strain) weighing approximately 250-300 gm were selected for the study. The animals were maintained at temperature of 24±2° C., 65% relative humidity and 12 hr light/dark cycle. The rats were acclimatized for two weeks and during this period they had access to standard pellet diet and water ad libitum. After two weeks of acclimatization, all the rats were fasted overnight before injecting Triton WR 1339 (Tyloxapol) and administration of test extracts/standard. The animals were divided into seven groups. Following treatment was given to overnight fasted rats: • Group I: Normal control (vehicle only) • Group II: Triton WR 1339 (300 mg/kg, intraperitoneal) • Group III: Triton WR 1339 (300 mg/kg, intraperitoneal) followed by administering product of amla seed extract (product 3) on the same day of triton administration (0.5 mg/kg, per oral) • Group IV: Triton WR 1339 (300 mg/kg, intraperitoneal) followed by product 2 (50% methanol fraction+80% methanol fraction+water fraction) of amla seed extract on the same day that Triton was administered (0.5 mg/kg, per oral) • Group V: Triton WR 1339 (300 mg/kg, intraperitoneal) followed by product 1 (Hexane fraction) of amla seed extract on the same day that Triton was administered (0.5 mg/kg, per oral) • Group VI: Triton WR 1339 (300 mg/kg, intraperitoneal) followed by powder of dried amla seed prepared as per Example 7 (0.5 mg/kg, per oral). The powder of dried amla seed was administered on the same day as triton was administered. • Group VII: Triton WR 1339 (300 mg/kg, intraperitoneal) followed by atorvastatin administration (10 mg/kg, per oral), on the same day.
# The animals were deprived of food for next 24 hours but had free access to water ad libitum. After 24 hours of drug treatment, 2 ml of blood sample was collected from the retro orbital plexus. The blood was allowed to clot and then centrifuged at 3000 rpm for 10 min and the serum was carefully drawn and collected into separate tubes. The serum was analyzed for total cholesterol, triglycerides, high density lipoproteins (HDL), low density lipoproteins (LDL) and very low density lipoproteins (VLDL) levels using auto-analyzer.
# [1] = 24 h after Triton i.p. + 10 mg/kg p.o.
smiles,measurement,setting,value
CC(C)c1c(C(=O)Nc2ccccc2)c(-c2ccccc2)c(-c2ccc(F)cc2)n1CC[C@@H](O)C[C@@H](O)CC(=O)O [Atorvastatin],HDL After,[1],38.46 mg/dL
same,LDL After,[1],44.30 mg/dL
same,TC After,[1],121.21 mg/dL
same,TG After,[1],192.25 mg/dL
same,VLDL After,[1],44.30 mg/dL
same,HDL Before,"baseline, 10 mg/kg p.o. group",35.54 mg/dL
same,LDL Before,"baseline, 10 mg/kg p.o. group",58.22 mg/dL
same,TC Before,"baseline, 10 mg/kg p.o. group",103.47 mg/dL
same,TG Before,"baseline, 10 mg/kg p.o. group",48.54 mg/dL
same,VLDL Before,"baseline, 10 mg/kg p.o. group",58.22 mg/dL
